Measured values reported in patent US6525059B1, “Substituted pyrazoles as p38 kinase inhibitors” (G. D. Searle & Company, priority 1998, dated 2003).

Legend:
human p38 kinase alpha = target: T1, human p38 kinase alpha (Homo sapiens, UniProt Q16539); assay: p38 kinase in vitro assay, phosphorylation of biotinylated PHAS-I with gamma 32P-ATP; assay type: biochemical; settings: read-out: P38 alpha kinase IC50
T1 construct: The coding region of the human p38a cDNA was obtained by PCR-amplification from RNA isolated from the human monocyte cell line THP.1; GST (N); made in house; host or cells: E. coli DH10B
T1 sequence (Q16539 whole entry): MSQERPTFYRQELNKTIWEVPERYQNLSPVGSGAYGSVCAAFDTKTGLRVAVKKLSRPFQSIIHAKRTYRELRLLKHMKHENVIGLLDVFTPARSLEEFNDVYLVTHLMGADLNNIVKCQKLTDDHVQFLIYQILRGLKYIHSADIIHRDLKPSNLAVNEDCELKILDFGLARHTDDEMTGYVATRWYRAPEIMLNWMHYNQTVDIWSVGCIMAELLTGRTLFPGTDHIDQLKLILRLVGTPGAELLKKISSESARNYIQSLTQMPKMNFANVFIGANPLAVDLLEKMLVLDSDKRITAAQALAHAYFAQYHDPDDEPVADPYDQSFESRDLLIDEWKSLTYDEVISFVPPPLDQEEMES
Outline: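 Radiometric filter-capture read-out: streptavidin plates trap biotin-PHAS-I labelled by activated (MKK6) human p38α from γ-32P-ATP. Buffer 25 mM HEPES pH 7.5, 10 mM magnesium acetate, 50 μM cold ATP; reactions 1 h or overnight at 30 °C; inhibitors 10-fold dilutions 100 to 0.001 μM, triplicates, 1% DMSO.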

TNF-α = assay: LPS stimulation of TNF production by U937 cells; assay type: cell-based, human; settings: Homo sapiens, U-937, @ 1.0 uM; read-out: U937 Cell % inhib @ conc.
Outline: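 PMA-differentiated human U937 cells (20 ng/ml PMA, 24 h, then 24-48 h rest) at 2 million cells/ml, 0.1% DMSO final, stimulated with E. coli LPS (100 ng/ml final) for 4 h at 37° C. TNF-α in medium measured by ELISA; IC50 in μM.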

| Compound | IC50 (human p38 kinase alpha) [µM] | inhibition at 1 µM (TNF-α) [%] |
| --- | --- | --- |
| C=CCNC(=O)N[C@H](C)c1[nH]nc(-c2ccc(F)cc2)c1-c1ccncc1 [Example B-0412] | 0.24 | 48 |
| CCCNC(=O)N[C@H](C)c1[nH]nc(-c2ccc(F)cc2)c1-c1ccncc1 [Example B-0413] | 0.18 | 55 |
| C[C@@H](NC(=O)N[C@H](C)c1[nH]nc(-c2ccc(F)cc2)c1-c1ccncc1)c1ccccc1 [Example B-0414] | 0.54 | 25 |
| C[C@@H](NC(=O)Nc1cccc(F)c1)c1[nH]nc(-c2ccc(F)cc2)c1-c1ccncc1 [Example B-0418] | 0.22 | 27 |
| C[C@@H](NC(=O)Cc1cccs1)c1[nH]nc(-c2ccc(F)cc2)c1-c1ccncc1 [Example B-0423] | 0.18 | 33 |
| C[C@@H](NC(=O)C(C)(C)C)c1[nH]nc(-c2ccc(F)cc2)c1-c1ccncc1 [Example B-0424] | 0.083 | 32 |
| CCCOC(=O)N[C@H](C)c1[nH]nc(-c2ccc(F)cc2)c1-c1ccncc1 [Example B-0425] | 0.26 | 54 |
| C[C@@H](NC(=O)[C@H]1CCCN1)c1[nH]nc(-c2ccc(F)cc2)c1-c1ccncc1 [Example B-0427] | 0.63 | 39 |
| CC(C)OC(=O)N[C@H](C)c1[nH]nc(-c2ccc(F)cc2)c1-c1ccncc1 [Example B-0429] | 0.27 | 45 |
| CC(=O)Nc1ccc(S(=O)(=O)N[C@H](C)c2[nH]nc(-c3ccc(F)cc3)c2-c2ccncc2)cc1 [Example B-0431] | 0.21 | 64 |
| CC(NS(=O)(=O)CC12CCC(CC1=O)C2(C)C)c1[nH]nc(-c2ccc(F)cc2)c1-c1ccncc1 (stereo not shown) [Example B-0434] | 0.12 | 65 |
| Cc1cc(C)c(S(=O)(=O)N[C@H](C)c2[nH]nc(-c3ccc(F)cc3)c2-c2ccncc2)c(C)c1 [Example B-0439] | 2.12 | 65 |
| C[C@@H](NS(=O)(=O)c1cccc2ccccc12)c1[nH]nc(-c2ccc(F)cc2)c1-c1ccncc1 [Example B-0441] | 0.8 | 58 |
| C[C@@H](NS(=O)(=O)c1cccc2cccnc12)c1[nH]nc(-c2ccc(F)cc2)c1-c1ccncc1 [Example B-0443] | 2.01 | 71 |
| CC(C)c1ccc(S(=O)(=O)N[C@H](C)c2[nH]nc(-c3ccc(F)cc3)c2-c2ccncc2)cc1 [Example B-0446] | 0.78 | 80 |
| Cc1c(Cl)cccc1S(=O)(=O)N[C@H](C)c1[nH]nc(-c2ccc(F)cc2)c1-c1ccncc1 [Example B-0447] | 0.19 | 71 |
| C[C@@H](NS(=O)(=O)c1ccc(F)cc1Cl)c1[nH]nc(-c2ccc(F)cc2)c1-c1ccncc1 [Example B-0449] | 0.83 | 81 |
| C[C@@H](NS(=O)(=O)c1ccccc1C#N)c1[nH]nc(-c2ccc(F)cc2)c1-c1ccncc1 [Example B-0450] | 0.26 | 81 |
| C[C@@H](NS(=O)(=O)c1cc(Cl)c(Cl)s1)c1[nH]nc(-c2ccc(F)cc2)c1-c1ccncc1 [Example B-0452] | 0.7 | 75 |
| C[C@@H](NS(=O)(=O)c1c(Cl)cccc1Cl)c1[nH]nc(-c2ccc(F)cc2)c1-c1ccncc1 [Example B-0453] | 0.47 | 75 |
| CCCCOc1ccc(S(=O)(=O)N[C@H](C)c2[nH]nc(-c3ccc(F)cc3)c2-c2ccncc2)cc1 [Example B-0456] | 1.81 | 67 |
| COc1ccc(OC)c(S(=O)(=O)N[C@H](C)c2[nH]nc(-c3ccc(F)cc3)c2-c2ccncc2)c1 [Example B-0457] | 0.089 | 81 |
| C[C@@H](NS(=O)(=O)c1ccccc1C(F)(F)F)c1[nH]nc(-c2ccc(F)cc2)c1-c1ccncc1 [Example B-0458] | 0.033 | 70 |
| C[C@@H](NS(=O)(=O)c1ccccc1Cl)c1[nH]nc(-c2ccc(F)cc2)c1-c1ccncc1 [Example B-0463] | 0.052 | 95 |
| C[C@@H](NS(=O)(=O)c1ccc(Cl)c(Cl)c1)c1[nH]nc(-c2ccc(F)cc2)c1-c1ccncc1 [Example B-0465] | 0.084 | 98 |
| Cc1ccc(C)c(S(=O)(=O)N[C@H](C)c2[nH]nc(-c3ccc(F)cc3)c2-c2ccncc2)c1 [Example B-0468] | 0.031 | 93 |
| Cc1ccccc1S(=O)(=O)N[C@H](C)c1[nH]nc(-c2ccc(F)cc2)c1-c1ccncc1 [Example B-0469] | 0.056 | 92 |

| Compound | IC50 (human p38 kinase alpha) [µM] | inhibition at 1 µM (TNF-α) [%] |
| --- | --- | --- |
| COc1ccc(C)cc1S(=O)(=O)N[C@H](C)c1[nH]nc(-c2ccc(F)cc2)c1-c1ccncc1 [Example B-0470] | 0.063 | 92 |
| C[C@@H](NS(=O)(=O)c1cccc(C(F)(F)F)c1)c1[nH]nc(-c2ccc(F)cc2)c1-c1ccncc1 [Example B-0471] | 0.027 | 97 |
| C[C@@H](NS(=O)(=O)[C@@]12CC[C@H](CC1=O)C2(C)C)c1[nH]nc(-c2ccc(F)cc2)c1-c1ccncc1 [Example B-0472] | 0.19 | 54 |
| C[C@@H](NS(=O)(=O)c1cccc2nonc12)c1[nH]nc(-c2ccc(F)cc2)c1-c1ccncc1 [Example B-0477] | 1.48 | 96 |
| COc1ccc(Cl)cc1S(=O)(=O)N[C@H](C)c1[nH]nc(-c2ccc(F)cc2)c1-c1ccncc1 [Example B-0478] | 0.034 | 87 |
| C[C@@H](NS(=O)(=O)c1ccc(CNC(=O)c2ccccc2)s1)c1[nH]nc(-c2ccc(F)cc2)c1-c1ccncc1 [Example B-0480] | 0.12 | 88 |
| Cc1c(C)c(S(=O)(=O)N[C@H](C)c2[nH]nc(-c3ccc(F)cc3)c2-c2ccncc2)c(C)c2c1OC(C)(C)CC2 [Example B-0482] | 0.97 | 68 |
| C[C@@H](NS(=O)(=O)c1ccc(-c2ccccn2)s1)c1[nH]nc(-c2ccc(F)cc2)c1-c1ccncc1 [Example B-0483] | 0.57 | 68 |
| C[C@@H](NS(=O)(=O)c1cn(C)cn1)c1[nH]nc(-c2ccc(F)cc2)c1-c1ccncc1 [Example B-0486] | 0.24 | 80 |
| C[C@@H](NS(=O)(=O)c1ccc(S(=O)(=O)c2ccccc2)s1)c1[nH]nc(-c2ccc(F)cc2)c1-c1ccncc1 [Example B-0488] | 0.62 | 88 |
| C[C@@H](NS(=O)(=O)c1ccccc1S(C)(=O)=O)c1[nH]nc(-c2ccc(F)cc2)c1-c1ccncc1 [Example B-0489] | 0.3 | 80 |
| Cc1ccccc1C(=O)N[C@H](C)c1[nH]nc(-c2ccc(F)cc2)c1-c1ccncc1 [Example B-0492] | 0.069 | 42 |
| C[C@@H](NC(=O)c1ccc(Cl)cc1)c1[nH]nc(-c2ccc(F)cc2)c1-c1ccncc1 [Example B-0493] | 0.3 | 36 |
| C[C@@H](NC(=O)c1cccc(C(F)(F)F)c1)c1[nH]nc(-c2ccc(F)cc2)c1-c1ccncc1 [Example B-0495] | 0.12 | 25 |
| C[C@@H](NC(=O)c1cc2ccccc2s1)c1[nH]nc(-c2ccc(F)cc2)c1-c1ccncc1 [Example B-0496] | 0.83 | 16 |
| C[C@@H](NC(=O)c1cc(Cl)cc(Cl)c1)c1[nH]nc(-c2ccc(F)cc2)c1-c1ccncc1 [Example B-0498] | 0.33 | 11 |
| C[C@@H](NC(=O)c1cc(F)cc(F)c1)c1[nH]nc(-c2ccc(F)cc2)c1-c1ccncc1 [Example B-0502] | 0.065 | 48 |
| C[C@@H](NC(=O)c1c(F)ccc(F)c1F)c1[nH]nc(-c2ccc(F)cc2)c1-c1ccncc1 [Example B-0503] | 0.16 | 73 |
| C[C@@H](NC(=O)c1cccc(Cl)c1Cl)c1[nH]nc(-c2ccc(F)cc2)c1-c1ccncc1 [Example B-0504] | 0.4 | 43 |
| C[C@@H](NC(=O)c1cc(C(F)(F)F)ccc1F)c1[nH]nc(-c2ccc(F)cc2)c1-c1ccncc1 [Example B-0506] | 0.94 | 43 |
| C[C@@H](NC(=O)c1c(F)cc(F)cc1F)c1[nH]nc(-c2ccc(F)cc2)c1-c1ccncc1 [Example B-0507] | 0.18 | 75 |
| C[C@@H](NC(=O)c1ccc(C(F)(F)F)cc1F)c1[nH]nc(-c2ccc(F)cc2)c1-c1ccncc1 [Example B-0508] | 2 | 48 |
| C[C@@H](NC(=O)c1c(F)cccc1C(F)(F)F)c1[nH]nc(-c2ccc(F)cc2)c1-c1ccncc1 [Example B-0509] | 0.1 | 86 |
| C[C@@H](NC(=O)c1ccc(F)cc1C(F)(F)F)c1[nH]nc(-c2ccc(F)cc2)c1-c1ccncc1 [Example B-0511] | 0.007 | 90 |
| C[C@@H](NC(=O)c1cc(F)cc(C(F)(F)F)c1)c1[nH]nc(-c2ccc(F)cc2)c1-c1ccncc1 [Example B-0513] | 0.72 | 52 |
| C[C@@H](NC(=O)c1ccccc1Cl)c1[nH]nc(-c2ccc(F)cc2)c1-c1ccncc1 [Example B-0514] | 0.14 | 87 |
